# Measured values from US20100159012A1, “Conjugates of Therapeutically Active Compounds” (priority 2005, published 2010).
# How the values were obtained:
# [1] = test system: RAW 264.7 cells; assay: Cytotoxicity by 3H-thymidine incorporation in murine RAW 264.7 cells
# Experimental: (§1) The final aldehyde concentrations in the test were 0.01-34 μmol/mL.
# (§2) The cytotoxicity of dextran derivatives was evaluated in murine RAW 264.7 cells, an internationally recognized cell line for examination of drug effects.
# (§3) Growth inhibition was estimated by the ^3H-thymidine incorporation method. Cells were cultured in flat-bottom flasks at 37° C. Before each experiment the cells were washed and removed by trypsin treatment or scraped from the flask bottom, and an appropriate volume was centrifuged, resuspended, and diluted in growth medium to the desired cell concentration. […] By use of an automated dispenser, 200 μL of cell suspension was added to each well of a microtiter plate. After incubation overnight, the appropriate drug concentration, in triplicate, was added to test wells. Drug-free medium was used as control. ^3H-Thymidine (0.5 μCi) in 20 μL of medium was added the next day, and the plate was harvested and read by liquid scintillation counter (LKB, Finland) after an additional 24 h. The percent growth inhibition of the cells by the drug tested was calculated as [100−(count with drug/control count)×100].
# (§4) Dextran with 50% oxidation was used as a positive toxicity control.
# (§5) Drug effect and the IC50 were defined as previously described.
# [2] = test system: Leishmania donovani IS promastigotes; assay: In vitro activity against Leishmania donovani promastigotes (3H-thymidine incorporation); assay type: cell-based
# Experimental: The in vitro antiparasitic activity was evaluated against Leishmania donovani IS promastigotes. This strain, isolated from a patient in Sudan, was received from the International Reference Center of the Kuvin Center for Infectious Diseases in the Hebrew University of Jerusalem.
# Serial dilutions of the tested agents were prepared in RPMI 1640 growth medium. The final AmB concentration in the test ranged from 0.2 to 6 μg/mL. Wells containing drug-free medium served as control. […] Briefly, 96-well plates were seeded with 60,000 promastigotes/well in 200 μL of medium, and test solutions were added 3 h later. After 24 h of incubation, 0.5 μCi/well ^3H-thymidine (in 10% FCS medium) was added, and the cultures were harvested after an additional 24 h. During the experiment the cells were incubated at 25° C. in air. The drug effect and the IC50 of the conjugates were estimated as described before (Example 7).
# [3] = test system: Sheep erythrocytes; assay: Hemolysis evaluated visually after 1 h incubation at 37° C.; assay type: cell-based; conditions: visual
# [4] = test system: Staphylococcus Aureus and E. Coli; assay: Antimicrobial activity, filter paper disc on seeded agar plate; assay type: cell-based; conditions: 24 hours at 37° C.; 6 mm filter paper; equivalent amounts of drug
# Experimental: The antimicrobial activity of these conjugates was determined as follows: Saline solutions of equivalent amounts of the drug in free form or the imine AG conjugate were absorbed onto a circular filter paper (6 mm in diameter) and placed on a seeded agar plate with Staphylococcus Aureus (10^5/ml) and E. Coli incubated for 24 hours at 37° C.
# [5] = In vitro release of conjugated drug into solution/buffer; assay type: physicochemical; conditions: after 12 hours in buffer at pH7.4 at 37° C.
# Experimental: About 10% of the conjugated drug was released after 12 hours in a buffer at pH7.4 at 37° C.
# [6] = test system: RAW 264.7 cells (growth, thymidine incorporation); assay: Cytotoxicity by 3H-thymidine incorporation in murine RAW 264.7 cells; conditions: mouse, RAW 264.7 cells
# Experimental: as §1, §2, §3, §4, §5
molecule,measurement,setting,value
"C[C@@H]1[C@H](O)[C@@H](C)/C=C/C=C/C=C/C=C/C=C/C=C/C=C/[C@H](O[C@@H]2O[C@H](C)[C@@H](O)[C@H](N)[C@@H]2O)C[C@@H]2O[C@](O)(C[C@@H](O)C[C@@H](O)[C@H](O)CC[C@@H](O)C[C@@H](O)CC(=O)O[C@H]1C)C[C@H](O)[C@H]2C(=O)O [Free AmB, Amphotericin B]",toxicity to cells,"[1]; AmB and dextran-AmB conjugates, equivalent AmB amounts",extremely toxic
same,Toxicity IC50,"[1]; murine RAW 264.7 cell line, 3H-thymidine incorporation",9 μgAmB/ml
same,toxicity/activity to parasites,[2]; AmB and dextran-AmB conjugates,extremely toxic
same,Antiparasitic activity IC50,"[2]; Leishmania donovani, 3H-thymidine incorporation",0.05 μgAmB/ml
same,Hemolysis,[3],16 μgAmB/ml
gentamicin,inhibition zone,[4],> 20 mm
"Somatostatin-Arabinogalactan Ethanolamine Conjugate: somatostatin conjugated to 32% oxidized AG, reacted with excess ethanolamine",conjugated drug released,[5],About 10%
O=CCCCC=O [Glutaraldehyde],IC50 at 48 h,[6],< 0.15 µg/mL
Native Dextran,IC50 (in vitro cytotoxicity of modified dextran),[1],>5000 µg/mL
